Data: US5886051A, “Methods and compositions for the treatment of neurodegeneration” (University Of Florida Research Foundation, Inc., priority 1995, dated 1999)
One block for each compound: values may come before it.

Test system: N-methyl-D-aspartate receptor complex
Assay: [3H]MK-801 binding to rat cortical membranes with excess L-glutamate and glycine, modulated by polyamines
Details: for effect on [3H]MK-801 binding: at 100 μm; for concentration above which the polyamine is antagonistic: piperidine polyamines, tested 0.05-1,000 μM; for [3H]MK-801 binding relative to "100% Control": 100 μM L-Glu, 100 μM Gly, 2 nM [3H]MK-801, mean ± SD
Excerpt: Data are plotted as means ±standard deviation for four separate experiments on each tetraamine: (--.tangle-solidup.--) SPM (n=4), (.largecircle.) DMNSPM (n=4), (.circle-solid.) DMHSPM (n=4), (.rect-hollow.) DENSPM (n=4), (.box-solid.) DEHSPM (N=4), (.increment.) DBHSPM (n=4) and (--.tangle-solidup.--) BAHSPM (n=4).
Cerebral cortices from young male Sprague-Dawley rats (200-300 g) were homogenized with 10 volumes of ice-cold 0.32M sucrose using a motor-driven glass/Teflon homogenizer. The homogenate was centrifuged at 1,000 g for 10 minutes. The 1,000 g pellet was re-suspended in buffer A (5 mM Tris-HCl, pH 7.7 at 4° C.) and centrifuged at 8,000 g for 20 minutes. The supernatant and upper buffy coat of the pellet were combined and centrifuged at 50,000 g for 20 minutes. The pellet was then re-suspended in 10 volumes of buffer A and homogenized using high-intensity ultrasound and centrifuged at 50,000 g, discarding the supernatant. The pellet was washed in this manner an additional three times and stored as a frozen suspension at […] for at least 18 hours, but no longer than two weeks, before use.
For binding experiments, frozen membranes were thawed, pelleted at 50,000 g for 20 minutes and washed as described above, except that 20 volumes of buffer A were used for re-suspension, for a total of five times. The final pellet was re-suspended in buffer B (5 mM Tris-HCl, pH 7.5 at 23° C.).
Binding assays were performed in triplicate at 23° C. for 1 hour and were terminated by filtration through Whatman GF/B glass fiber filters followed by three 5.0 ml rinses of ice-cold buffer B using a Brandel M-48 cell harvester.

Structure (SMILES): C(CNC1CCNCC1)CNC1CCNCC1 [PIP[3,3,3]]
effect on [3H]MK-801 binding: still agonistic

Structure (SMILES): Cl.Cl.Cl.Cl.NCCCNCCCCNCCCN [SPM, Spermine tetrahydrochloride, reference compound]
[3H]MK-801 binding relative to "100% Control" (1 μM tetraamine): 123.2±5.0%
[3H]MK-801 binding relative to "100% Control" (500 μM tetraamine): 82.0±8.1%
[3H]MK-801 binding relative to "100% Control" (1,000 μM tetraamine, 1000 µM): 78.9±8.3%
effect on [3H]MK-801 binding relative to "100% Control" (at 500 and 1,000 μM): moderate antagonism

Structure (SMILES): CC(C)(C)NCCCCNCCCCNCCCCNC(C)(C)C [DBHSPM]
[3H]MK-801 binding relative to "100% Control" (1 μM tetraamine): 106.5±8.0%
[3H]MK-801 binding relative to "100% Control" (10 μM tetraamine): 33.0±4.0%

Structure (SMILES): CCNCCCCNCCCCNCCCCNCC [DEHSPM, diethylhomospermine]
[3H]MK-801 binding relative to "100% Control" (1 μM tetraamine): 114.3±4.5%
[3H]MK-801 binding relative to "100% Control" (10 μM tetraamine): 53.9±6.0%

Structure (SMILES): C(CCNC1CCNCC1)CNC1CCNCC1 [PIP[3,4,3]]
effect on [3H]MK-801 binding: agonistic

Structure (SMILES): CCNCCCNCCCNCCCNCC [DENSPM]
[3H]MK-801 binding relative to "100% Control" (1 μM tetraamine): 113.7±5.9%
[3H]MK-801 binding relative to "100% Control" (10 μM tetraamine): 63.7±5.9%

Second part, the compound after the results:

concentration above which the polyamine is antagonistic: above 12 μm
Structure (SMILES): C(CCNCC1CCNCC1)CNCC1CCNCC1 [PIP[4,4,4], N,N'-1,4-Butanediylbis(4-piperidinemethanamine)]

concentration above which the polyamine is antagonistic: above 13 μm
Structure (SMILES): C(CCNCCC1CCNCC1)CNCCC1CCNCC1 [PIP[5,4,5], N,N'-1,4-Butanediylbis(4-piperidineethanamine)]

[3H]MK-801 binding relative to "100% Control" (1 μM tetraamine): 117.8±8.1%
[3H]MK-801 binding relative to "100% Control" (10 μM tetraamine): 76.3±7.0%
Structure (SMILES): CNCCCCNCCCCNCCCCNC [DMHSPM]

[3H]MK-801 binding relative to "100% Control" (1 μM tetraamine): 120.6±3.1%
[3H]MK-801 binding relative to "100% Control" (10 μM tetraamine): 87.9±6.0%
Structure (SMILES): CNCCCNCCCNCCCNC [DMNSPM]
